Common to all, as to assay: inhibition of tumour cell growth, NCI panel, 48 h
In experiment [1] the test system is 786-0 renal.
The test system of experiment [2] is A498 renal.
The subject of experiment [3] is A549 NSCLC.
Experiment [4] deals with BT-549 breast.
Experiment [5] concerns IGROV1 ovarian.
Experiment [6] deals with MALME-3M melanoma.
The subject of experiment [7] is MOLT-4 leukemia.
Experiment [8] deals with NCI-H460 lung.
Experiment [9] concerns RXF 393 renal.
Experiment [10] relates to TK-10 renal.
Experiment [11] deals with UACC-62 melanoma.
For experiment [12], the system named is SK-MEL-2 melanoma.
In experiment [13] the test system is SK-MEL-28 melanoma.

We go through 12 compounds from PubChem BioAssay (NCI).

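Five concentrations, 48 hours, 96-well plates. TGI is the concentration that stops growth completely.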 A value given as a limit tells only on which side of the number the result lay.

As to `CC(=O)OC(OC(C)=O)c1ccc2ccc3cccc4ccc1c2c34`, the TGI in experiment [1] is greater than 100 µM; in experiment [2] it was 3.74 µM; in experiment [3], greater than 100 µM; in [4], 53.6 µM; in experiment [5], 54.1 µM; in experiment [6], 54.7 µM. Further, the TGI is greater than 100 µM in experiment [7]; 39.6 µM in experiment [8]; 25.3 µM in experiment [9]; 21.4 µM in experiment [10]; 27.3 µM in [11].
For `CO/N=C(\C)c1ccc(Nc2nc3ccccc3c3occc23)cc1`, the TGI in [1] worked out at 27.2 µM; in [2], 29.7 µM; in experiment [3] it was 39 µM; in [4], 31 µM; in [5], 31.7 µM; in experiment [6], 28.3 µM. For the same compound, the TGI was determined as 53.1 µM in experiment [7]; 34.1 µM in experiment [8]; 33.4 µM in experiment [12]; 25.4 µM in [10]; 24.7 µM in [11].
For `COC(=O)/C=C(\C(=O)OC)C1C(=O)Oc2c(C)c(=O)c3ccccc3n21` (configuration not stated), the TGI in [1], in experiment [3], in experiment [4], in experiment [5], in [6] and in experiment [7] was greater than 100 µM each time. Besides, the TGI in experiment [8], in experiment [9], in experiment [12], in [13], in [10] and in experiment [11] was greater than 100 µM in each case.
With `N#Cc1n[nH]n(-c2ccc(Br)cc2)c1=O`, the TGI in [1], in experiment [2], in experiment [3], in experiment [4], in experiment [5] and in [6] was greater than 100 µM throughout. Moreover, the TGI in experiment [9], in [12], in experiment [13], in experiment [10] and in [11] was greater than 100 µM each time.
Consider `CCOC(=O)CCC(NC(=O)Cc1ccc(Nc2nc3cc(F)c(F)cc3nc2C(=O)OCC)cc1)C(=O)OCC` (configuration not stated), for which the TGI in [1], in [2], in experiment [3], in experiment [4], in experiment [6] and in [7] was greater than 100 µM each time. The TGI was greater than 100 µM in experiment [8]; 60.4 µM in experiment [12]; greater than 100 µM in experiment [13]; greater than 100 µM in experiment [10]; greater than 100 µM in [11].
As to `CCN(CC)CCNc1ccc2nnn3c4ccc(OCCN(CC)CC)cc4c(=O)c1c23`, the TGI in [1] is greater than 100 µM; in experiment [2], greater than 100 µM; in experiment [3] it was greater than 100 µM; in experiment [4] it was greater than 100 µM; in experiment [7] it was 39 µM; in experiment [8], greater than 100 µM. Besides, the TGI in experiment [9], in [12], in [13], in experiment [10] and in [11] was greater than 100 µM throughout.
As to `CCOC(=O)NC(Nc1ccc(C)cc1)(C(F)(F)F)C(F)(F)F`, the TGI in experiment [1], in [2], in [3], in [4], in experiment [5] and in experiment [6] was greater than 100 µM throughout. For the same compound, the TGI in experiment [7], in experiment [8], in experiment [13], in [10] and in [11] was greater than 100 µM each time.
Turning to `CC1=C(C)CC2C(=O)N(c3cc(C(C)(C)C)ccc3C(C)(C)C)C(=O)C2C1` (configuration not stated), the TGI in experiment [1] was greater than 100 µM; in experiment [3], greater than 100 µM; in experiment [4], greater than 100 µM; in experiment [5] it was greater than 100 µM; in experiment [6] it was 16.4 µM; in experiment [7], greater than 100 µM. Further, the TGI is greater than 100 µM in experiment [8]; 74.9 µM in [9]; greater than 100 µM in experiment [12]; greater than 100 µM in experiment [13]; greater than 100 µM in experiment [10]; 31.8 µM in experiment [11].
Take `C[n+]1c2ccc(Cl)cc2nc2cc(-c3ccccc3)ccc21`: the TGI in experiment [1] was greater than 100 µM; in experiment [3], 47.7 µM; in experiment [4], 25.5 µM; in experiment [5], 35.4 µM; in [6], 40.4 µM; in [7], 5.19 µM. Further, the TGI in experiment [8] worked out at 67.3 µM; in experiment [9] it was 55.2 µM; in [12], 46.2 µM; in [13] it was 43.8 µM; in [10], 43.2 µM; in [11], 43.8 µM.
For the compound `COc1cccc(C2c3cc4c(cc3OC(N3CCCCC3)C2C)OCO4)c1O` (configuration not stated), the TGI in experiment [1] is 26.2 µM; in [3], greater than 66.5 µM; in experiment [4] it was 54.9 µM; in experiment [5], greater than 100 µM; in experiment [6], 36.1 µM; in [7] it was 37.6 µM. In addition, the TGI in experiment [8] is 24.4 µM; in [9] it was 18.7 µM; in experiment [12] it was 42.5 µM; in experiment [13] it was 73.2 µM; in experiment [10], 62.8 µM; in experiment [11], 28.2 µM.
On to `CO[C@@]12C[C@@H](C)C3=CCC(C)=C3CC1=C(C)C(=O)O2`, for which the TGI in [1], in experiment [2], in [4], in [5], in experiment [6] and in experiment [7] was greater than 100 µM in each case. In addition, the TGI in [8], in experiment [12], in experiment [13], in experiment [10] and in experiment [11] was greater than 100 µM each time.
For `Cc1n(Cc2ccccc2)c2c([n+]1C)C(=O)c1ccccc1C2=O`, the TGI in experiment [1] was 0.877 µM; in [2], 0.653 µM; in experiment [3], 0.197 µM; in experiment [4] it was 0.234 µM; in [5], 0.127 µM; in experiment [6], 0.0577 µM. Moreover, the TGI in [8] was 0.5 µM; in experiment [9], 2.42 µM; in [12], 0.388 µM; in [13], 0.541 µM; in [10], 1.67 µM; in experiment [11] it was 0.451 µM.
